Assay results published in US12655116B2, “Substituted isophthalic acid diamides” (Bayer Aktiengesellschaft, priority 2020, dated 2026).

What was measured:
SETVI [1] = experiment: Post-emergence herbicidal action against SETVI; type: in vivo, Setaria viridis; details: Setaria viridis, 504 h
Procedure, shortened: (§1)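 Sandy loam, greenhouse; treatment 2–3 weeks after sowing, one-leaf stage. Aqueous suspension or emulsion from WP/EC sprayed on foliage (600–800 l/ha, 0.2% wetting agent). Readout: visual % action, ~3 weeks.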

HORMU [2] = experiment: Pre-emergence herbicidal action against HORMU; type: in vivo, Hordeum murinum; details: Hordeum murinum, 504 h, pre-emergence
Procedure, shortened: (§2)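 Seeds sown in sandy loam, soil-covered; compound sprayed on soil surface pre-emergence. Application: WP/EC, 600–800 l/ha, 0.2% wetting agent. Readout: visual % damage at 3 weeks.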

AVEFA = experiment: Pre-emergence herbicidal action against AVEFA; type: in vivo, Avena fatua; details: Avena fatua, 504 h, pre-emergence
Procedure, shortened: as §2

ABUTH [3] = experiment: Post-emergence herbicidal action against ABUTH; type: in vivo, Abutilon theophrasti; details: Abutilon theophrasti, 504 h, visual assessment about 3 weeks after treatment vs untreated controls
Procedure, shortened: as §1

AMARE [4] = experiment: Pre-emergence herbicidal action against AMARE; type: in vivo, Amaranthus retroflexus; details: Amaranthus retroflexus, 504 h, 100% = plants have died, 0% = like control plants
Procedure, shortened: as §2

ECHCG = experiment: Pre-emergence herbicidal action against ECHCG; type: in vivo, Echinochloa crus-galli; details: Echinochloa crus-galli, 504 h
Procedure, shortened: as §2

ALOMY [5] = experiment: Pre-emergence herbicidal action against ALOMY; type: in vivo, Alopecurus myosuroides; details: Alopecurus myosuroides, 504 h, pre-emergence
Procedure, shortened: as §2

PHBPU = experiment: Post-emergence herbicidal action against PHBPU; type: in vivo, Pharbitis purpurea; details: Ipomoea purpurea, 504 h
Procedure, shortened: as §1

MATIN = experiment: Post-emergence herbicidal action against MATIN; type: in vivo, Matricaria inodora; details: Tripleurospermum inodorum, 504 h
Procedure, shortened: as §1

HORMU [6] = experiment: Post-emergence herbicidal action against HORMU; type: in vivo, Hordeum murinum; details: Hordeum murinum, 504 h
Procedure, shortened: as §1

AMARE [7] = experiment: Post-emergence herbicidal action against AMARE; type: in vivo, Amaranthus retroflexus; details: Amaranthus retroflexus, 504 h, visual assessment about 3 weeks after treatment, 100% = plants have died, 0% = like control plants
Procedure, shortened: as §1

VIOTR [8] = experiment: Post-emergence herbicidal action against VIOTR; type: in vivo, Viola tricolor; details: Viola tricolor, 504 h
Procedure, shortened: as §1

STEME [9] = experiment: Post-emergence herbicidal action against STEME; type: in vivo, Stellaria media; details: Stellaria media, 504 h
Procedure, shortened: as §1

VERPE = experiment: Post-emergence herbicidal action against VERPE; type: in vivo, Veronica persica; details: Veronica persica, 504 h, 80 g/ha
Procedure, shortened: as §1

ALOMY [10] = experiment: Post-emergence herbicidal action against ALOMY; type: in vivo, Alopecurus myosuroides; details: Alopecurus myosuroides, 504 h, visual assessment about 3 weeks after treatment vs untreated controls
Procedure, shortened: as §1

VIOTR [11] = experiment: Pre-emergence herbicidal action against VIOTR; type: in vivo, Viola tricolor; details: Viola tricolor, 504 h
Procedure, shortened: as §2

STEME [12] = experiment: Pre-emergence herbicidal action against STEME; type: in vivo, Stellaria media; details: Stellaria media, 504 h
Procedure, shortened: as §2

POLCO = experiment: Pre-emergence herbicidal action against POLCO; type: in vivo, Polygonum convolvulus; details: Fallopia convolvulus, 504 h, dosage 320 g/ha
Procedure, shortened: as §2

ABUTH [13] = experiment: Pre-emergence herbicidal action against ABUTH; type: in vivo, Abutilon theophrasti; details: Abutilon theophrasti, 504 h
Procedure, shortened: as §2

LOLRI [14] = experiment: Post-emergence herbicidal action against LOLRI; type: in vivo, Lolium rigidum; details: Lolium rigidum, 504 h, dosage 80 g/ha
Procedure, shortened: as §1

SETVI [15] = experiment: Pre-emergence herbicidal action against SETVI; type: in vivo, Setaria viridis; details: Setaria viridis, 504 h
Procedure, shortened: as §2

LOLRI [16] = experiment: Pre-emergence herbicidal action against LOLRI; type: in vivo, Lolium rigidum; details: Lolium rigidum, 504 h, 320 g/ha
Procedure, shortened: as §2

[17] = 320 g/ha, scored visually after 3 weeks, 100% = plants have died, 0% = like control plants
[18] = 80 g/ha, scored visually after 3 weeks vs untreated controls (100% = plants have died, 0% = like control plants)

CNC(=O)c1c(C(F)(F)F)ccc(C(=O)Nc2nnc(C)o2)c1Cl [Example 6-116]
100%: pest or weed control at 5 g/ha (SETVI [1]; dosage 5 g/ha) | pest or weed control at 20 g/ha (SETVI [1]; dosage 20 g/ha) | pest or weed control at 80 g/ha (SETVI [1]; dosage 80 g/ha) | pest or weed control at 320 g/ha (HORMU [2]; 320 g/ha) | pest or weed control at 80 g/ha (AVEFA; 80 g/ha) | pest or weed control at 320 g/ha (AVEFA; [17]) | pest or weed control at 20 g/ha (ABUTH [3]; dosage 20 g/ha) | pest or weed control at 80 g/ha (ABUTH [3]; dosage 80 g/ha) | pest or weed control at 20 g/ha (AMARE [4]; 20 g/ha, scored visually after 3 weeks vs untreated controls) | pest or weed control at 80 g/ha (AMARE [4]; 80 g/ha, scored visually after 3 weeks vs untreated controls) | pest or weed control at 320 g/ha (AMARE [4]; 320 g/ha, scored visually after 3 weeks) | pest or weed control at 80 g/ha (ECHCG; 80 g/ha) | pest or weed control at 320 g/ha (ECHCG; 320 g/ha) | pest or weed control at 80 g/ha (ALOMY [5]; [18]) | pest or weed control at 320 g/ha (ALOMY [5]; [17]) | pest or weed control at 80 g/ha (MATIN; dosage 80 g/ha) | pest or weed control at 80 g/ha (HORMU [6]; dosage 80 g/ha) | pest or weed control at 20 g/ha (AMARE [7]; 20 g/ha) | pest or weed control at 80 g/ha (AMARE [7]; 80 g/ha) | pest or weed control at 80 g/ha (VIOTR [8]; 80 g/ha) | pest or weed control at 20 g/ha (STEME [9]; 20 g/ha) | pest or weed control at 80 g/ha (STEME [9]; 80 g/ha) | pest or weed control at 80 g/ha (ALOMY [10]; dosage 80 g/ha) | pest or weed control at 80 g/ha (VIOTR [11]; dosage 80 g/ha) | pest or weed control at 320 g/ha (VIOTR [11]; dosage 320 g/ha) | pest or weed control at 80 g/ha (STEME [12]; dosage 80 g/ha) | pest or weed control at 320 g/ha (STEME [12]; dosage 320 g/ha) | pest or weed control at 80 g/ha (ABUTH [13]; [18]) | pest or weed control at 320 g/ha (ABUTH [13]; Dosage: 320 g/ha, scored visually after 3 weeks, 100% = plants have died, 0% = like control plants) | pest or weed control at 20 g/ha (ABUTH [13]; dosage 20 g/ha, scored visually after 3 weeks vs untreated controls, 100% = plants have died, 0% = like control plants, read-out: Pre-emergence action against ABUTH (herbicidal activity in percent)) | pest or weed control at 80 g/ha (SETVI [15]; dosage 80 g/ha) | pest or weed control at 320 g/ha (SETVI [15]; dosage 320 g/ha) | pest or weed control at 320 g/ha (LOLRI [16])
80%: pest or weed control at 5 g/ha (PHBPU; dosage 5 g/ha) | pest or weed control at 20 g/ha (PHBPU; dosage 20 g/ha) | pest or weed control at 5 g/ha (MATIN; dosage 5 g/ha) | pest or weed control at 20 g/ha (VIOTR [8]; 20 g/ha) | pest or weed control at 20 g/ha (ALOMY [10]; dosage 20 g/ha)
90%: pest or weed control at 80 g/ha (HORMU [2]; 80 g/ha) | pest or weed control at 5 g/ha (ABUTH [3]; dosage 5 g/ha) | pest or weed control at 80 g/ha (PHBPU; dosage 80 g/ha) | pest or weed control at 20 g/ha (MATIN; dosage 20 g/ha) | pest or weed control at 20 g/ha (HORMU [6]; dosage 20 g/ha) | pest or weed control at 5 g/ha (STEME [9]; dosage 5 g/ha) | pest or weed control at 80 g/ha (VERPE) | pest or weed control at 20 g/ha (STEME [12]; dosage 20 g/ha) | pest or weed control at 320 g/ha (POLCO) | pest or weed control at 80 g/ha (LOLRI [14])
